B1: fetuin A: the strongest intrinsic serum calcification inhibitor (protein, UniProt P02765 19-300; P02765 341-367, looked up)
Alpha-2-HS-glycoprotein chain … 1: APHGPGLIYRQPNCDDPETEEAALVAIDYINQNLPWGYKHTLNQIDEVKVWPQQPSGELFEIEIDTLETTCHVLDPTPVARCSVRQLKEHAVEGDCDFQLLKLDGKFSVVYAKCDSSPDSAEDVRKVCQDCPLLAPLNDTRVVHAAKAALAAFNAQNNGSNFQLEEISRAQLVPLPPSTYVEFTVSGTDCVAKEATEAAKCNLLAEKQYGFCKATLSEKLGGAEVAVTCMVFQTQPVSSQPQPEGANEAVPTPVVDPDAPPSPPLGAPGLPPAGSPPDSHVL
Alpha-2-HS-glycoprotein chain … 2: TVVQPSVGAAAGPVVPPCPGRIRHFKV

Columns and labels:
[1] = test system: transition of primary CPPs into secondary CPPs; test: Nephelometer assay in the presence of serum; format: biochemical, human; conditions: for transition rate of primary CPPs into secondary CPPs (T50): in the presence of the substance, cf. FIG. 2A
Description: Stock Solutions: 1. NaCl-solution: NaCl 140 mM, 2. Calcium solution: CaCl2 40 mM+Hepes 100 mM+NaCI 140 mM, pH adjusted with NaOH 10 mM to 7.40 at 37° C., 3. […] Na2HP04 19.44 mM+NaH2PO4 4.56 mM+Hepes 100 mM+NaCI 140 mM, pH adjusted with NaOH 10 mM to 7.40 at 37° C. […] These pipetting steps were performed in the following order: 1. NaCl-solution: 20 μl/well, 2. serum 80 μl/well, 3. shaking for 1 minute, 4. phosphate solution 50 μl/well, 5. shaking for 1 minute, 6. calcium solution 50 μl/well, shaking for 1 minute. Air bubbles in the wells were disintegrated with a pocket lighter and the 96-well covered with a […] adhesive sealing film for microplates. […] Assay conditions and Nephelostar® settings: measurement in a thermo constant room at 34.5° C. with the internal radiation of the device turned off. This led to an infernal measurement temperature of 36.5° C. to 37° C. The Nephelostar® was operated and controlled via the Nephelostar provider's Galaxy Software on a Windows Computer platform. The assay was performed with 200 cycles of 1.5 seconds measurement time per well and a position delay of 0.1 seconds in horizontal plate reading mode, adding up to a cycle time of 180 seconds/cycle for our Standard assay. This adds up to a total assay run time of 10 hours per assay. […] After completion of the run, data were transferred to Excel® and transposed from lines into columns. Data columns were copied into the GraphPad Prism® program to generate an XY-graph. Data were then processed by calculating nonlinear regression in the “log(agonist) vs. response-variable slope (four Parameters)” mode using the “robust fit” fitting method. The resulting values obtained for T50 and RNUT50 were further processed as required. We chose physiological conditions for temperature (37° C.) and pH (7.40 at 37° C.), and designed the assay for a final volume of 200 μl per well. These 200 μl consisted of 20 μl NaCl 140 mM, 80 μl serum, 50 μl phosphate 24 mM and 50 μl calcium 40 mM solution which were mixed in this order. […]

[2] = test system: transition of primary CPPs into secondary CPPs; test: Nephelometry in the absence of serum; format: biochemical; conditions: FIG. 6A

Molecule	transition rate of primary CPPs into secondary CPPs (T50) [1]	other results
[Mg+2] [magnesium]	delayed	
O=S([O-])([O-])=S.[Na+].[Na+] [sodium thiosulfate]		impact on the assay ([1]; spiked to serum in amounts of up to 40 mM): did not have any impact
phosphate	accelerated	
B1		influence on the assay (spiked serum components) [2]: significantly influences the assay

From patent publication US9651566B2, “Method for determining the propensity for calcification” (Rheinisch-Westfälische Technische Hochschule Aachen, priority 2011, dated 2017)
